From US20260159474A1, “Aminoindane Compounds and Compositions and Methods of Their Therapeutic Use” (Solvonis Therapeutics Ireland Holdings Limited, priority 2021, published 2026)
Like-named read-outs stand apart in the source and are kept apart here.

Legend:
CYP2C19 = target: T1, CYP2C19 (Homo sapiens, UniProt P33261); experiment: CYP450 inhibition, fluorescent probe substrate; format: in vitro ADME
T1 construct: host or cells: recombinant microsomes
Experimental: (§1) Methods: Recombinant human CYP450 isoenzymes were used to metabolize pro-fluorescent probe substrates to fluorescent products. IC50 values determined from the effect of test compounds on the metabolism of these probe substrates were then used to determine inhibitory potency against CYP450 isoforms. The chemical reagents included:
(§2) The test system was based on a three-step procedure with a “mix and read” format, where reaction and reading were performed at 37° C. The assays described herein measure in vitro inhibitory effects (pIC50) of compounds on the human P450 isoforms (1A2, 2B6, 2C8, 2C9, 2C19, 2D6, 3A4) expressed in recombinant microsomes. Pro-fluorescent probe substrates were metabolized to fluorescent products by the enzymes. Fluorescence was measured in kinetic mode (1 read/minutes for 10 minutes), and the fluorescence rate was calculated.
(§3) Inhibition of the fluorescent signal resulting from P450 activation indicated inhibitory activity and facilitated calculation of the compound pIC50. A quality check was included in each compound plate, wherein the signal window was monitored by performing Z′ calculations ([…] ) and the antagonist potency of internal standards was within the pIC50±2SD range. Concentration response curves (CRCs) of compounds were run on two different test occasions (n 2) by preparing serial dilutions from the same compound stock solution.
(§4) To prepare the compound plate, test compounds serial dilutions 1 to 3 were performed from a 10 mM stock solution in DMSO by Biomek FX to generate 10 point CRC with the highest concentrations in columns 3 and 13.
(§5) 100% DMSO was placed in columns 1 and 2 and used for assay low controls. CYP inhibitor (10 mM miconazole solution in DMSO) was placed in columns 23 and 24 and served as an assay high controls. 1 μL copy plates were then stamped into V-bottom drug plates at a concentration that is 200 fold the final assay concentration. The copy plates were diluted prior to the experiment with assay buffer to reach 4 times the final assay concentration (2% w/v DMSO).
(§6) A reference compound (e.g., miconazole) was included in each compound plate in row A, column 3 and 13. The reference compound was diluted and stamped together with test compounds. The final concentrations of the 10 point CRCs of test compounds in the assay plate were 5.00E-05; 1.67E-05; 5.56E-06; 1.85E-06; 6.17E-07; 2.06E-07; 6.86E-08; 2.29E-08; 7.62E-09 and 2.54E-09, respectively. All solutions were prepared immediately before the assay.
(§7) Microsomes were added to the buffer prior to the substrate addition. The solution was carefully mixed without vortexing. 30 μL/well of the mixture was then transferred to the assay plate (384-well black plate) using a 16-channel pipette. For each P450 isoformn, a separate plate was prepared and labeled with a barcode. For fluorescence measurement, 10 μL/well of the test compounds were transferred from the compound plate to the assay plate using Biomek FX and the appropriate protocol. The assay plate was then incubated at 37° C. for 10 minutes on a shaker to allow for the interaction between compounds and enzymes.
(§8) 10 μL/well of the cofactor was then added to the assay plate using the Multidrop before placing the assay plate in the plate reader EnVision to measure fluorescence. The overall final DMSO concentration for the assay was 0.5%. Plates were read every minute for 10 minutes, according to a P450 isoform specific protocol, as shown below.
(§9) Regarding data analysis, inhibition is expressed as a percentage. […] Curve fitting and pIC50 estimations are carried out using a four-parameter logistic model in Morphit.

CYP2C9 = target: T2, CYP2C9 (Homo sapiens, UniProt P11712); experiment: CYP450 inhibition, fluorescent probe substrate; format: in vitro ADME
T2 construct: host or cells: recombinant microsomes
T2 sequence (P11712 whole entry): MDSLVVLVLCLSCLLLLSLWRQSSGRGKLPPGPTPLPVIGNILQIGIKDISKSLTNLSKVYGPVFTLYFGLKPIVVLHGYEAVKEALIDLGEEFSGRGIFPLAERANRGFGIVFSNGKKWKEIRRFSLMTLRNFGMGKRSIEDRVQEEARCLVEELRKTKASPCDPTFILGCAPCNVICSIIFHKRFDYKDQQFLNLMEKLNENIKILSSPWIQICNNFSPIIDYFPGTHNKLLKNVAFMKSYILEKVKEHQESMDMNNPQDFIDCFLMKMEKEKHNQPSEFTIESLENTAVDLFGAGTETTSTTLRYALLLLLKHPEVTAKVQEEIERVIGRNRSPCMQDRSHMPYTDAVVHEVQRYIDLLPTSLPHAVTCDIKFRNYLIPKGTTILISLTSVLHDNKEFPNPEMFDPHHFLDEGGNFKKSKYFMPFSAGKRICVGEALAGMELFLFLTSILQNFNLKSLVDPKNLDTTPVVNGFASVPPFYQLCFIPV
Experimental: as §1, §2, §3, §4, §5, §6, §7, §8, §9

CYP1A2 = target: T3, CYP1A2 (Homo sapiens, UniProt P05177); experiment: CYP450 inhibition, fluorescent probe substrate; format: in vitro ADME
T3 construct: host or cells: recombinant microsomes
T3 sequence (P05177 1-516): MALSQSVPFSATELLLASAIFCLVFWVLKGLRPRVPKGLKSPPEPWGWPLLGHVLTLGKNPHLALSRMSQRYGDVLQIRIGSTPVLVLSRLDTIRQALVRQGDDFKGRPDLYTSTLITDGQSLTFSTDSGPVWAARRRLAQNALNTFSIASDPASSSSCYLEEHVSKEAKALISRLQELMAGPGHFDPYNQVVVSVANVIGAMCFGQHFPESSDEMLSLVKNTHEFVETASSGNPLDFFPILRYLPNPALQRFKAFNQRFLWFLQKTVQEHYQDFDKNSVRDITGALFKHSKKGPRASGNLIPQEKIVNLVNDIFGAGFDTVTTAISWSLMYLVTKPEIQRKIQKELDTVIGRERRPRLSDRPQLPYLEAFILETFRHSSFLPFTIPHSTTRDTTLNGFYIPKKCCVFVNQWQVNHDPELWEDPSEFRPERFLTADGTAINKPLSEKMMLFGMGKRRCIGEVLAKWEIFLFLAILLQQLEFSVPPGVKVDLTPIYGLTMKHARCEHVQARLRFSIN
Experimental: as §1, §2, §3, §4, §5, §6, §7, §8, §9

CYP2D6 = target: T4, CYP2D6 (Homo sapiens, UniProt P10635); experiment: CYP450 inhibition, fluorescent probe substrate; format: in vitro ADME
T4 construct: host or cells: recombinant microsomes
T4 sequence (P10635 whole entry): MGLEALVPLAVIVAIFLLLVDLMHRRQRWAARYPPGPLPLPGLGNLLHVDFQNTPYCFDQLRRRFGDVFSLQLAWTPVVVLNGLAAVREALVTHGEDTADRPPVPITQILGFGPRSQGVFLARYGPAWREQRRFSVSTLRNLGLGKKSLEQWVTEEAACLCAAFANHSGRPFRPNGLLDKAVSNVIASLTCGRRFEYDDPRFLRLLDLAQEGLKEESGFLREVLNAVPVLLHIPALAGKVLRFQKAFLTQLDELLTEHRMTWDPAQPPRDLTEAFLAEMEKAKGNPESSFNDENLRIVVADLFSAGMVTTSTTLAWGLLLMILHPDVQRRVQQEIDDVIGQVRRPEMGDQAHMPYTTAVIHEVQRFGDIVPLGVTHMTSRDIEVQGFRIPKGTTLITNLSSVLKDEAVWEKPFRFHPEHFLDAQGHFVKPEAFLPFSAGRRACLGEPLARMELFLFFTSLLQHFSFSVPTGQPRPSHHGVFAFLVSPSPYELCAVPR
Experimental: as §1, §2, §3, §4, §5, §6, §7, §8, §9

hSERT = target: T5, hSERT (Homo sapiens, UniProt P31645); experiment: SERT uptake SPA in hSERT-CHO cells; format: cell-based; conditions: for SERT/DAT Uptake Ratio: calculated as 1/SERT IC50:1/DAT IC50
T5 construct: expressed in transfected cells; host or cells: CHO (hSERT-CHO)
T5 sequence (P31645 whole entry): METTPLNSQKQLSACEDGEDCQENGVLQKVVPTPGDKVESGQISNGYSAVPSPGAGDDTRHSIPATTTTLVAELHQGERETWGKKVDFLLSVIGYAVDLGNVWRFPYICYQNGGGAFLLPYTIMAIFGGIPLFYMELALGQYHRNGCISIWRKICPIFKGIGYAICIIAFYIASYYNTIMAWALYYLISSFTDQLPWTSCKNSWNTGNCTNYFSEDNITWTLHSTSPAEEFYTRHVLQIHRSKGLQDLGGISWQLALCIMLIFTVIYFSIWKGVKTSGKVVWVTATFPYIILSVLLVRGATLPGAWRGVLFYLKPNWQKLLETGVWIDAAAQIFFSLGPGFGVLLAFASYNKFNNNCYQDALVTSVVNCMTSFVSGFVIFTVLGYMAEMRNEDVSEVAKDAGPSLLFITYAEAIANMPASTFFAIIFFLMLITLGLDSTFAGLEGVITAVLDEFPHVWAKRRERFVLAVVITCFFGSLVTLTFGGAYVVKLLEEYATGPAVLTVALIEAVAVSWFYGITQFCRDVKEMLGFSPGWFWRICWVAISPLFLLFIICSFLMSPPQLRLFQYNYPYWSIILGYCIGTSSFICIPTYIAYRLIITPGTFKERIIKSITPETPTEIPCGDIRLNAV
Experimental: Briefly, on experiment days, hDAT-CHO cells were detached using Versene and added at a density of approximately 300,000 cells/mL to the SPA Mixture, which contains the following components in Assay Buffer (20 mM HEPES, 145 mM NaCl, 5 mM KCl, 2 mM CaCl2), 1 mM MgCl2, 5.5 mM glucose, 0.01% Pluronic F127, pH 7.3): 0.75 mg/mL SPA Imaging beads (RPNQ0001, PerkinElmer), 10 μM pargyline and 80 nM of [3H]-dopamine (NET673, PerkinEImer). The SPA Mixture was added 20 μL/well to 384 well plates containing 0.1 μL/well of test compound in neat DMSO (11 points of 1:5 serial dilution, 0.5% DMSO final) or 0.1 μL of DMSO (total uptake) or 0.1 μL of the standard inhibitor indatraline (at 1 μM final concentration, as nonspecific uptake). Plates were sealed with a Top-seal A and read using a Microbeta counter (PerkinElmer) after 45 minutes of incubation at room temperature. […] The SPA Mixture was added 20 μL/well to 384 well plates containing 0.1 μL/well of test compound in neat DMSO (11 points of 1:5 serial dilution, 0.5% DMSO final), 0.1 μL of DMSO (total uptake), or 0.1 μL of the standard inhibitor indatraline (1 μM, nonspecific uptake). Plates were sealed with a Top-seal A and read using a Microbeta counter (PerkinElmer) after 120 minutes of incubation at room temperature.
For both tests, the raw experimental data (cpm) were elaborated for the determination of pIC50/IC50 values as % inhibition of specific uptake. Concentration-response curves of MDMA, MDDMA, citalopram and GBR-12909 were used as internal standards in all experiments, and the signal window was monitored in each plate performing Z′ calculations, as described in Zhang et al., J Biomol Screen.

[1] = recombinant human isoenzyme, n=2, read-out: Inhibition of CYP2C19, IC50
[2] = recombinant human isoenzyme, n=2, read-out: Inhibition of CYP2C9, IC50
[3] = recombinant human isoenzyme, n=2, read-out: Inhibition of CYP1A2, IC50
[4] = recombinant human isoenzyme, n=2, read-out: Inhibition of CYP2D6, IC50
[5] = recombinant human isoenzyme, n=2
[6] = [3H]-serotonin uptake, hSERT-CHO cells, read-out: SERT Uptake SPA (pIC50) (converted)

T1 sequence (P33261 whole entry): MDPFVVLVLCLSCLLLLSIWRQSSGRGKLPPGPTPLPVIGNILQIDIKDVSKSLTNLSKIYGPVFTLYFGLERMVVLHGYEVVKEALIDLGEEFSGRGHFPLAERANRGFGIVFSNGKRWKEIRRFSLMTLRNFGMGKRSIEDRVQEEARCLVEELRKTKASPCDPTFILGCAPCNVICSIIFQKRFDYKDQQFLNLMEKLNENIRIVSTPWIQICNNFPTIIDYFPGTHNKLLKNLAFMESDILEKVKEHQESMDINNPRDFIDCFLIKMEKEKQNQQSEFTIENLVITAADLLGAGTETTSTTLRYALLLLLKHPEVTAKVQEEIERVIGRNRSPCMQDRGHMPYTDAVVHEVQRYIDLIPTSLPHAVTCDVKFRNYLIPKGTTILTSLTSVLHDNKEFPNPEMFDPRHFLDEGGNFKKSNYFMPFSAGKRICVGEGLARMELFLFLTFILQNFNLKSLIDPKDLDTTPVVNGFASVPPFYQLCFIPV

CNC(C)Cc1ccc2c(c1)OCO2 (stereo not shown) [MDMA]
IC50 (CYP2C19; [1]): > 50 µM
IC50 (CYP2C9; [2]): > 50 µM
IC50 (CYP1A2; [3]): > 50 µM
IC50 (CYP2D6; [4]): 1.6 µM
SERT Uptake SPA (pIC50) (hSERT; [3H]-serotonin uptake, hSERT-CHO cells): 6.0
SERT/DAT Uptake Ratio (hSERT): 2.1

COC(=O)c1ccc2c(c1)CC(N)C2 (stereo not shown) [CMP-405, 2-aminoindane-5-methylcarboxylate]
IC50 (CYP2C19; [1]): > 50 µM
IC50 (CYP2C9; [2]): > 50 µM
Inhibition of CYP1A2, IC50 (CYP1A2; [5]): displayed inhibitory activity at CYP1A2
IC50 (CYP1A2; [3]): 0.61 µM
IC50 (CYP2D6; [4]): 23 µM
IC50 (hSERT; [6]): 7.94 µM

COc1ccc2c(c1)CC(N)C2 (stereo not shown) [MEAI, 5-methoxy-2-aminoindane]
IC50 (CYP2C19): > 50 µM
IC50 (CYP2C9): > 50 µM
IC50 (CYP1A2): > 50 µM
IC50 (CYP2D6): 37 µM
IC50 (hSERT): 3.98 µM
SERT/DAT Uptake Ratio (hSERT): 9

COc1cc2c(cc1C)CC(N)C2 (stereo not shown) [MMAI, 5-methoxy-6-methyl-2-aminoindane]
IC50 (CYP2C19): > 50 µM
IC50 (CYP2C9): 35.7 µM
Inhibition of CYP2C9, IC50 (CYP2C9; [5]): found to inhibit CYP2C9
IC50 (CYP1A2): 2.11 µM
Inhibition of CYP1A2, IC50 (CYP1A2; [5]): displayed inhibitory activity at CYP1A2
IC50 (CYP2D6): 33.6 µM
IC50 (hSERT): 1 µM
SERT/DAT Uptake Ratio (hSERT): 52

COC(=O)c1cc2c(cc1OC)CC(N)C2 (stereo not shown) [CMP-401]
IC50 (CYP2C19; [1]): > 50 µM
IC50 (CYP2C9; [2]): > 50 µM
Inhibition of CYP1A2, IC50 (CYP1A2; [5]): displayed inhibitory activity at CYP1A2
IC50 (CYP1A2; [3]): 1.21 µM
IC50 (CYP2D6; [4]): > 50 µM
IC50 (hSERT; [6]): 3.98 µM
SERT/DAT Uptake Ratio (hSERT): 22

COC(=O)COc1ccc2c(c1)CC(N)C2 (stereo not shown) [CMP-402]
IC50 (CYP2C19; [1]): > 50 µM
IC50 (CYP2C9; [2]): > 50 µM
Inhibition of CYP1A2, IC50 (CYP1A2; [5]): displayed inhibitory activity at CYP1A2
IC50 (CYP1A2; [3]): 1.07 µM
IC50 (CYP2D6; [4]): > 50 µM
IC50 (hSERT; [6]): 63.1 µM
SERT/DAT Uptake Ratio (hSERT): 1.4
